From patent publication US20080107679A1, “Skin care compositions including hexapeptide complexes and methods of their manufacture” (priority 2003, published 2008)

Key:
skin = assay: Clinical evaluations of the hexapeptide complex: moisture content; assay type: in vivo; conditions: after 15 minutes of use
From the text: (§1) The combination of ingredients of the skin care compositions of the present invention are believed to provide synergistic benefits which are otherwise not available with any one of the components used by itself. Clinical evaluations based on the use of the hexapeptide complex itself evidenced a reduction in fine lines and wrinkles, including laugh lines, frown lines, and smile lines, by approximately 13% after 2 weeks and approximately 33% in 4 weeks of use. It was further observed that 100% of participants experienced a reduction in under-eye fine lines and wrinkles on the average of approximately 16% after 4 weeks and approximately 52% after 8 weeks of use. Additionally, an increase in moisture content by 37% after 15 minutes of use was observed.

fine lines and wrinkles = assay: Clinical evaluations of the hexapeptide complex: fine lines and wrinkles; assay type: in vivo
From the text: as §1

acetyl hexapeptide-3 [hexapeptide complex]
increase in moisture content (skin): 37% | reduction in fine lines and wrinkles, including laugh lines, frown lines, and smile lines (fine lines and wrinkles; after 2 weeks): approximately 13% | average reduction in under-eye fine lines and wrinkles (fine lines and wrinkles; after 4 weeks): approximately 16% | average reduction in under-eye fine lines and wrinkles (fine lines and wrinkles; after 8 weeks of use): approximately 52% | reduction in fine lines and wrinkles, including laugh lines, frown lines, and smile lines (fine lines and wrinkles; in 4 weeks of use): approximately 33% | participants who experienced a reduction in under-eye fine lines and wrinkles (fine lines and wrinkles; in vivo): 100%
